Measurements reported in BigSolDB 2.1.

SMILES: ON(Cc1ccccc1)Cc1ccccc1
- solubility (mole fraction) (in 1,2,4-trichlorobenzene, 293.75 K): 0.00704
- solubility (mole fraction) (in 1,2,4-trichlorobenzene, 299.15 K): 0.0103
- solubility (mole fraction) (in 1,2,4-trichlorobenzene, 303.25 K): 0.0138
- solubility (mole fraction) (in 1,2,4-trichlorobenzene, 308.45 K): 0.0198
- solubility (mole fraction) (in 1,2,4-trichlorobenzene, 313.15 K): 0.0263
- solubility (mole fraction) (in 1,2,4-trichlorobenzene, 318.15 K): 0.0367
- solubility (mole fraction) (in 1,2,4-trichlorobenzene, 323.15 K): 0.0502
- solubility (mole fraction) (in 1,2-dichlorobenzene, 273.15 K): 0.00343
- solubility (mole fraction) (in 1,2-dichlorobenzene, 279.15 K): 0.00486
- solubility (mole fraction) (in 1,2-dichlorobenzene, 283.65 K): 0.00624
- solubility (mole fraction) (in 1,2-dichlorobenzene, 289.15 K): 0.0086
- solubility (mole fraction) (in 1,2-dichlorobenzene, 293.25 K): 0.0106
- solubility (mole fraction) (in 1,2-dichlorobenzene, 298.65 K): 0.0142
- solubility (mole fraction) (in 1,2-dichlorobenzene, 303.25 K): 0.0182
- solubility (mole fraction) (in 1,2-dichlorobenzene, 309.05 K): 0.024
- solubility (mole fraction) (in 1,2-dichlorobenzene, 313.25 K): 0.0302
- solubility (mole fraction) (in 1,2-dichlorobenzene, 318.95 K): 0.0395
- solubility (mole fraction) (in 1,2-dichlorobenzene, 323.35 K): 0.0475
- solubility (mole fraction) (in THF, 273.65 K): 0.051
- solubility (mole fraction) (in THF, 279.15 K): 0.0594
- solubility (mole fraction) (in THF, 284.15 K): 0.0678
- solubility (mole fraction) (in THF, 289.15 K): 0.0773
- solubility (mole fraction) (in THF, 293.75 K): 0.0865
- solubility (mole fraction) (in THF, 299.15 K): 0.0986
- solubility (mole fraction) (in THF, 303.25 K): 0.109
- solubility (mole fraction) (in THF, 308.45 K): 0.123
- solubility (mole fraction) (in THF, 313.15 K): 0.137
- solubility (mole fraction) (in THF, 318.15 K): 0.152
- solubility (mole fraction) (in THF, 323.15 K): 0.169
- solubility (mole fraction) (in acetone, 273.15 K): 0.00762
- solubility (mole fraction) (in acetone, 279.15 K): 0.0102
- solubility (mole fraction) (in acetone, 283.45 K): 0.0124
- solubility (mole fraction) (in acetone, 289.05 K): 0.0159
- solubility (mole fraction) (in acetone, 293.05 K): 0.0186
- solubility (mole fraction) (in acetone, 297.65 K): 0.0229
- solubility (mole fraction) (in acetone, 302.85 K): 0.0282
- solubility (mole fraction) (in acetone, 308.05 K): 0.035
- solubility (mole fraction) (in acetone, 313.15 K): 0.0425
- solubility (mole fraction) (in acetone, 317.15 K): 0.0489
- solubility (mole fraction) (in acetone, 323.15 K): 0.0598
- solubility (mole fraction) (in acetonitrile, 273.15 K): 0.00152
- solubility (mole fraction) (in acetonitrile, 279.15 K): 0.00222
- solubility (mole fraction) (in acetonitrile, 283.45 K): 0.00283
- solubility (mole fraction) (in acetonitrile, 289.05 K): 0.00387
- solubility (mole fraction) (in acetonitrile, 293.05 K): 0.0049
- solubility (mole fraction) (in acetonitrile, 297.65 K): 0.00624
- solubility (mole fraction) (in acetonitrile, 302.85 K): 0.00815
- solubility (mole fraction) (in acetonitrile, 308.05 K): 0.0108
- solubility (mole fraction) (in acetonitrile, 313.15 K): 0.014
- solubility (mole fraction) (in acetonitrile, 317.15 K): 0.0168
- solubility (mole fraction) (in acetonitrile, 323.15 K): 0.0217
- solubility (mole fraction) (in cyclohexanone, 273.15 K): 0.0233
- solubility (mole fraction) (in cyclohexanone, 279.15 K): 0.0292
- solubility (mole fraction) (in cyclohexanone, 283.65 K): 0.0341
- solubility (mole fraction) (in cyclohexanone, 289.15 K): 0.041
- solubility (mole fraction) (in cyclohexanone, 293.25 K): 0.0471
- solubility (mole fraction) (in cyclohexanone, 298.65 K): 0.056
- solubility (mole fraction) (in cyclohexanone, 303.25 K): 0.0654
- solubility (mole fraction) (in cyclohexanone, 309.05 K): 0.0778
- solubility (mole fraction) (in cyclohexanone, 313.25 K): 0.09
- solubility (mole fraction) (in cyclohexanone, 318.95 K): 0.105
- solubility (mole fraction) (in cyclohexanone, 323.35 K): 0.119
- solubility (mole fraction) (in dichloromethane, 273.15 K): 0.0132
- solubility (mole fraction) (in dichloromethane, 279.15 K): 0.0179
- solubility (mole fraction) (in dichloromethane, 283.45 K): 0.0226
- solubility (mole fraction) (in dichloromethane, 289.05 K): 0.0287
- solubility (mole fraction) (in dichloromethane, 293.05 K): 0.0345
- solubility (mole fraction) (in dichloromethane, 297.65 K): 0.0425
- solubility (mole fraction) (in dichloromethane, 302.85 K): 0.0534
- solubility (mole fraction) (in dichloromethane, 308.05 K): 0.0657
- solubility (mole fraction) (in dichloromethane, 312.15 K): 0.0798
- solubility (mole fraction) (in ethanol, 273.15 K): 0.00127
- solubility (mole fraction) (in ethanol, 279.15 K): 0.00172
- solubility (mole fraction) (in ethanol, 283.45 K): 0.00215
- solubility (mole fraction) (in ethanol, 289.05 K): 0.00281
- solubility (mole fraction) (in ethanol, 293.05 K): 0.00342
- solubility (mole fraction) (in ethanol, 297.65 K): 0.00426
- solubility (mole fraction) (in ethanol, 302.85 K): 0.00543
- solubility (mole fraction) (in ethanol, 308.05 K): 0.00695
- solubility (mole fraction) (in ethanol, 313.15 K): 0.00863
- solubility (mole fraction) (in ethanol, 317.15 K): 0.0103
- solubility (mole fraction) (in ethanol, 323.15 K): 0.013
- solubility (mole fraction) (in ethyl acetate, 273.15 K): 0.00842
- solubility (mole fraction) (in ethyl acetate, 279.15 K): 0.0114
- solubility (mole fraction) (in ethyl acetate, 283.45 K): 0.0139
- solubility (mole fraction) (in ethyl acetate, 289.05 K): 0.0178
- solubility (mole fraction) (in ethyl acetate, 293.05 K): 0.0209
- solubility (mole fraction) (in ethyl acetate, 297.65 K): 0.0256
- solubility (mole fraction) (in ethyl acetate, 302.85 K): 0.0317
- solubility (mole fraction) (in ethyl acetate, 308.05 K): 0.0395
- solubility (mole fraction) (in ethyl acetate, 313.15 K): 0.0483
- solubility (mole fraction) (in ethyl acetate, 317.15 K): 0.0551
- solubility (mole fraction) (in ethyl acetate, 323.15 K): 0.0679
- solubility (mole fraction) (in isobutanol, 273.15 K): 0.000771
- solubility (mole fraction) (in isobutanol, 279.15 K): 0.00114
- solubility (mole fraction) (in isobutanol, 283.65 K): 0.00149
- solubility (mole fraction) (in isobutanol, 289.15 K): 0.00208
- solubility (mole fraction) (in isobutanol, 293.25 K): 0.00258
- solubility (mole fraction) (in isobutanol, 298.65 K): 0.00355
- solubility (mole fraction) (in isobutanol, 303.25 K): 0.00446
- solubility (mole fraction) (in isobutanol, 309.05 K): 0.00613
- solubility (mole fraction) (in isobutanol, 313.25 K): 0.00753
- solubility (mole fraction) (in isobutanol, 318.95 K): 0.0097
- solubility (mole fraction) (in isobutanol, 323.35 K): 0.0119
- solubility (mole fraction) (in isopropanol, 273.15 K): 0.000527
- solubility (mole fraction) (in isopropanol, 279.15 K): 0.000822
- solubility (mole fraction) (in isopropanol, 283.65 K): 0.00111
- solubility (mole fraction) (in isopropanol, 289.15 K): 0.00164
- solubility (mole fraction) (in isopropanol, 293.25 K): 0.00206
- solubility (mole fraction) (in isopropanol, 298.65 K): 0.00298
- solubility (mole fraction) (in isopropanol, 303.25 K): 0.00389
- solubility (mole fraction) (in isopropanol, 309.05 K): 0.00542
- solubility (mole fraction) (in isopropanol, 313.25 K): 0.00677
- solubility (mole fraction) (in isopropanol, 318.95 K): 0.00891
- solubility (mole fraction) (in isopropanol, 323.35 K): 0.0114
- solubility (mole fraction) (in methanol, 273.15 K): 0.00126
- solubility (mole fraction) (in methanol, 279.15 K): 0.00171
- solubility (mole fraction) (in methanol, 283.45 K): 0.00209
- solubility (mole fraction) (in methanol, 289.05 K): 0.00276
- solubility (mole fraction) (in methanol, 293.05 K): 0.00333
- solubility (mole fraction) (in methanol, 297.65 K): 0.00409
- solubility (mole fraction) (in methanol, 302.85 K): 0.00513
- solubility (mole fraction) (in methanol, 308.05 K): 0.00648
- solubility (mole fraction) (in methanol, 313.15 K): 0.00795
- solubility (mole fraction) (in methanol, 317.15 K): 0.00934
- solubility (mole fraction) (in methanol, 323.15 K): 0.0117
- solubility (mole fraction) (in n-butanol, 273.15 K): 0.00141
- solubility (mole fraction) (in n-butanol, 279.15 K): 0.00198
- solubility (mole fraction) (in n-butanol, 283.45 K): 0.00248
- solubility (mole fraction) (in n-butanol, 289.05 K): 0.00338
- solubility (mole fraction) (in n-butanol, 293.05 K): 0.00411
- solubility (mole fraction) (in n-butanol, 297.65 K): 0.00509
- solubility (mole fraction) (in n-butanol, 302.85 K): 0.00663
- solubility (mole fraction) (in n-butanol, 308.05 K): 0.00843
- solubility (mole fraction) (in n-butanol, 313.15 K): 0.0108
- solubility (mole fraction) (in n-butanol, 317.15 K): 0.0127
- solubility (mole fraction) (in n-butanol, 323.15 K): 0.0159
- solubility (mole fraction) (in n-octanol, 273.15 K): 0.00126
- solubility (mole fraction) (in n-octanol, 279.15 K): 0.00187
- solubility (mole fraction) (in n-octanol, 283.65 K): 0.00248
- solubility (mole fraction) (in n-octanol, 289.15 K): 0.00352
- solubility (mole fraction) (in n-octanol, 293.25 K): 0.00449
- solubility (mole fraction) (in n-octanol, 298.65 K): 0.00627
- solubility (mole fraction) (in n-octanol, 303.25 K): 0.00789
- solubility (mole fraction) (in n-octanol, 309.05 K): 0.011
- solubility (mole fraction) (in n-octanol, 313.25 K): 0.0136
- solubility (mole fraction) (in n-octanol, 318.95 K): 0.0178
- solubility (mole fraction) (in n-octanol, 323.35 K): 0.022
- solubility (mole fraction) (in n-pentanol, 273.65 K): 0.00163
- solubility (mole fraction) (in n-pentanol, 279.15 K): 0.00226
- solubility (mole fraction) (in n-pentanol, 284.15 K): 0.00291
- solubility (mole fraction) (in n-pentanol, 289.15 K): 0.00386
- solubility (mole fraction) (in n-pentanol, 293.75 K): 0.00479
- solubility (mole fraction) (in n-pentanol, 299.15 K): 0.00631
- solubility (mole fraction) (in n-pentanol, 303.25 K): 0.00766
- solubility (mole fraction) (in n-pentanol, 308.45 K): 0.00965
- solubility (mole fraction) (in n-pentanol, 313.15 K): 0.0121
- solubility (mole fraction) (in n-pentanol, 318.15 K): 0.0151
- solubility (mole fraction) (in n-pentanol, 323.15 K): 0.0185
- solubility (mole fraction) (in n-propanol, 273.15 K): 0.00136
- solubility (mole fraction) (in n-propanol, 279.15 K): 0.00187
- solubility (mole fraction) (in n-propanol, 283.45 K): 0.00232
- solubility (mole fraction) (in n-propanol, 289.05 K): 0.00313
- solubility (mole fraction) (in n-propanol, 293.05 K): 0.00383
- solubility (mole fraction) (in n-propanol, 297.65 K): 0.00476
- solubility (mole fraction) (in n-propanol, 302.85 K): 0.00606
- solubility (mole fraction) (in n-propanol, 308.05 K): 0.00781
- solubility (mole fraction) (in n-propanol, 313.15 K): 0.00991
- solubility (mole fraction) (in n-propanol, 317.15 K): 0.012
- solubility (mole fraction) (in n-propanol, 323.15 K): 0.015
- solubility (mole fraction) (in toluene, 273.15 K): 0.0043
- solubility (mole fraction) (in toluene, 279.15 K): 0.00586
- solubility (mole fraction) (in toluene, 283.65 K): 0.00732
- solubility (mole fraction) (in toluene, 289.15 K): 0.00959
- solubility (mole fraction) (in toluene, 293.25 K): 0.0114
- solubility (mole fraction) (in toluene, 298.65 K): 0.0149
- solubility (mole fraction) (in toluene, 303.25 K): 0.0182
- solubility (mole fraction) (in toluene, 309.05 K): 0.0231
- solubility (mole fraction) (in toluene, 313.25 K): 0.0273
- solubility (mole fraction) (in toluene, 318.95 K): 0.0337
- solubility (mole fraction) (in toluene, 323.35 K): 0.0398
